Measured values published in US20150299345A1, “ANTIBACTERIAL MONOMERS, ANTIBACTERIAL RESINS AND DENTAL COMPOSITES COMPRISING THE ANTIBACTERIAL RESINS” (UNIVERSITY OF MARYLAND, BALTIMORE, priority 2012, published 2015).
Read-outs that look alike come from different tables or passages of the source.

Tests used:
[1] = test system: S. mutans (ATCC 700610, UA159); assay: MIC and MBC by serial microdilution assays; type: cell-based, Streptococcus mutans; details: for MBC / MIC: 48 h, triplicate; for antibacterial potency (MIC and MBC) compared with another agent: comparison in words
Experimental: MIC and MBC were measured using S. mutans (ATCC 700610, UA159, American Type Culture, Manassas, Va.). S. mutans is a cariogenic, aerotolerant anaerobic bacterium and the primary causative agent of dental caries (Loesche 1986). MIC and MBC were determined via serial microdilution assays (Imazato S et al. 2006; Huang L et al. 2011). Unpolymerized DMAHM or DMADM monomer was dissolved in brain heart infusion (BHI) broth (BD, Franklin Lakes, N.J.) to give a final concentration of 200 mg/mL. From these starting solutions, serial two fold dilutions were made into 1 mL volumes of BHI broth. 15 μL of stock S. mutans was added to 15 mL of BHI broth with 0.2% sucrose and incubated at 37° C. with 5% CO2. Overnight cultures of S. mutans were adjusted to 2×10^6 CFU/mL with BHI broth, and 50 μL of inocula was added to each well of a 96-well plate containing 50 μL of a series of antibacterial monomer dilution broths. BHI broth with 1×10^6 CFU/mL bacteria suspension without antibacterial agent served as negative control. Chlorhexidine diacetate (CHX) (Sigma, St. Louis, Mo.) served as positive control. The previously-synthesized QADM (Antonucci J M et al. 2012; Cheng L et al. 2012a) served as an antibacterial monomer control. After incubation at 37° C. in 5% CO2 for 48 h, the wells were read for turbidity, referenced by the negative and positive control wells. MIC was determined as the endpoint (the well with the lowest antibacterial agent concentration) where no turbidity could be detected with respect to the controls (Huang L et al. 2011). To determine MBC, an aliquot of 50 μL from each well without turbidity was inoculated on BHI agar plates and incubated at 37° C. in 5% CO2 for 48 h. MBC was determined as the lowest concentration of antibacterial agent that produced no colonies on the plate. The tests were performed in triplicate (Huang L et al. 2011).

[2] = test system: dental plaque microcosm biofilms; assay: Live/dead assay of biofilms (CLSM); type: cell-based, human saliva inoculum; details: 48-h biofilms on composite disks, FIG. 5
Experimental: The dental plaque microcosm biofilm model used human saliva as inoculum. Saliva was collected from a healthy adult donor following a previous study (Cheng L et al. 2012b). The donor had natural dentition without active caries or periopathology, and without the use of antibiotics within the last 3 months. […] Stimulated saliva was collected during parafilm chewing and kept on ice. The saliva was diluted in sterile glycerol to a concentration of 70% saliva and 30% glycerol (Cheng L et al. 2012b), and stored at −80° C. The saliva-glycerol stock was added, with 1:50 final dilution, into the growth medium as inoculum. The growth medium contained mucin (type II, porcine, gastric) at a concentration of 2.5 g/L; bacteriological peptone, 2.0 g/L; tryptone, 2.0 g/L; yeast extract, 1.0 g/L; NaCl, 0.35 g/L, KCl, 0.2 g/L; CaCl2, 0.2 g/L; cysteine hydrochloride, 0.1 g/L; haemin, 0.001 g/L; vitamin K1, 0.0002 g/L, at pH 7 (McBain A J 2009). Composite disks were sterilized in ethylene oxide (Anprolene AN 74i, Andersen, Haw River, N.C.). 1.5 mL of inoculum was added to each well of 24-well plates with a composite disk, and incubated in 5% CO2 at 37° C. for 8 h. […] Live bacteria were stained with Syto 9 to produce a green fluorescence, and bacteria with compromised membranes were stained with propidium iodide to produce a red fluorescence. […]

[3] = test system: Human gingival fibroblasts (HGF); assay: Cytotoxicity of monomers via MTT assay; type: cell-based; details: for cytotoxicity / cell viability compared with BisGMA: human gingival fibroblasts, FIG. 1
Experimental: Human gingival fibroblasts (HGF, ScienCell) were cultured in a fibroblast medium (FM). […] Then, HGF were seeded in 96-well plates at 5,000 cells per well. […] After 4 h, the unreacted dye was removed and 150 μL, of dimethyl sulfoxide was added. Absorbance was measured via the microplate reader at 492 nm. […] Cells were also live/dead stained (Molecular Probes) and examined with fluorescence microscopy (TE2000-S, Nikon) as shown in FIG. 1B.

[4] = unpolymerized monomer in BHI broth

| MIC [1, 4] [µg/mL] | MIC ([1]; Streptococcus mutans, ATCC700610, unpolymerized monomer in BHI broth, read-out: MIC) [µg/mL] | Compound | MBC [1, 4] [µg/mL] | antibacterial activity by live/dead staining of biofilms [2] | fibroblast viability ([3]; at each monomer concentration (0.5-100 μg/mL), 2 d, n=6, FIG. 1) | cytotoxicity / cell viability compared with BisGMA [3] | antibacterial potency (MIC and MBC) compared with another agent [1] | MBC ([1]; Streptococcus mutans, ATCC700610, unpolymerized monomer in BHI broth, read-out: MBC) [µg/mL] |
| --- | --- | --- | --- | --- | --- | --- | --- | --- |
| 0.305 | – | C=C(C)C(=O)OCC[N+](C)(C)CCCCCCCCCCCCCCCC.[Br-] [DMAHDM, dimethylamino hexadecyl methacrylate] | 0.61 | – | – | – | an order of magnitude more potent than those for chain length 12 | – |
| 1560 | – | C=C(C)C(=O)OCC[N+](C)(C)CCCCCC.[Br-] [DMAHM] | 3130 | – | – | – | more potent than the previously-synthesized QADM | – |

More lines, now with the values behind:

| Compound | MIC [1, 4] [µg/mL] | MIC ([1]; Streptococcus mutans, ATCC700610, unpolymerized monomer in BHI broth, read-out: MIC) [µg/mL] | MBC [1, 4] [µg/mL] | antibacterial activity by live/dead staining of biofilms [2] | fibroblast viability ([3]; at each monomer concentration (0.5-100 μg/mL), 2 d, n=6, FIG. 1) | cytotoxicity / cell viability compared with BisGMA [3] | antibacterial potency (MIC and MBC) compared with another agent [1] | MBC ([1]; Streptococcus mutans, ATCC700610, unpolymerized monomer in BHI broth, read-out: MBC) [µg/mL] |
| --- | --- | --- | --- | --- | --- | --- | --- | --- |
| CC(=O)O.CC(=O)O.NC(=N\CCCCCC/N=C(N)/N=C(\N)Nc1ccc(Cl)cc1)/N=C(\N)Nc1ccc(Cl)cc1 [CHX, Chlorhexidine diacetate, reference compound] | 1.95 | – | 3.91 | – | – | – | – | – |
| C=C(C)C(=O)OCC[N+](C)(C)CCCCCCCCCCCC.[Br-] [DMADDM, dimethylamino dodecyl methacrylate] | 6.10 | – | 12.21 | responsible for the antibacterial activity | highest fibroblast viability | less cytotoxic | more than two orders of magnitude lower than those of MDAHM | – |
| C=C(C)C(=O)OCCCCCCCCCCCC[n+]1ccccc1.[Br-] [MDPB, reference compound] | – | – | – | – | – | less cytotoxic | – | – |
| C=C(C)C(=O)OCC[N+](C)(C)CCOC(=O)C(=C)C.[Br-] [QADM, bis(2-methacryloyloxy-ethyl) dimethyl-ammonium bromide, reference compound] | – | 12500 | – | – | – | – | – | 25000 |
